Assay results reported in the supplement of paper PMC13380429.

Key:
[1] = system: A549-ACE2 infected with SARS-CoV-2; test: cell count relative to DMSO; higher = less toxic; settings: 24 h
Calu-3 [2] = test: cell viability relative to DMSO; higher = less toxic; settings: 72 h
Vero E6 [3] = test: as above; settings: 72 h
U2OS [4] = test: as above; settings: 72 h
Caco-2 [5] = test: as above; settings: 72 h
HepG2 [6] = test: as above; settings: 72 h
[7] = system: A549-ACE2 infected with SARS-CoV-2; test: SARS-CoV-2 infection rate relative to DMSO; higher = more infection; settings: 24 h
[8] = system: A549-ACE2 infected with SARS-CoV-2; test: morphology score (similarity to uninfected cells); higher = more like uninfected cells; settings: 24 h
Calu-3 [9] = test: drug sensitivity score (DSS) for viability; higher = more toxic; extreme values may be limits of the assay; settings: 72 h
Vero E6 [10] = test: as above; settings: 72 h
U2OS [11] = test: as above; settings: 72 h
Caco-2 [12] = test: as above; settings: 72 h
HepG2 [13] = test: as above; settings: 72 h
A549-ACE2 [14] = test: phospholipidosis EC50; higher = less potent phospholipidosis inducer
A549-ACE2 [15] = test: drug-induced phospholipidosis relative to tamoxifen; higher = more phospholipidosis
Vero E6 [16] = test: relative viability EC50 (midpoint between 100% and the lowest measured viability); higher = less toxic; settings: 72 h
U2OS [17] = test: as above; settings: 72 h
Caco-2 [18] = test: as above; settings: 72 h
HepG2 [19] = test: as above; settings: 72 h
Calu-3 [20] = test: as above; settings: 72 h

CN1CCCC(CN2c3ccccc3Sc3ccccc32)C1 (stereo not given) [mepazine]
Settings | SARS-CoV-2 infection rate [%] | cell count [%] | cell viability [%] | morphology score | phospholipidosis EC50 [µM]
A549-ACE2 [14], 24 h | – | – | – | – | 3.88
A549-ACE2 [14], 48 h | – | – | – | – | 6.39
A549-ACE2 [14], 72 h | – | – | – | – | 9.51
Caco-2 [5], 1 nM | – | – | 94.1 | – | –
Caco-2 [5], 10 nM | – | – | 98.3 | – | –
Caco-2 [5], 100 nM | – | – | 98.2 | – | –
Caco-2 [5], 1000 nM | – | – | 101 | – | –
Caco-2 [5], 10000 nM | – | – | 85.7 | – | –
Calu-3 [2], 1 nM | – | – | 106 | – | –
Calu-3 [2], 10 nM | – | – | 99.2 | – | –
Calu-3 [2], 100 nM | – | – | 99.3 | – | –
Calu-3 [2], 1000 nM | – | – | 99.5 | – | –
Calu-3 [2], 10000 nM | – | – | 72.8 | – | –
HepG2 [6], 1 nM | – | – | 98.3 | – | –
HepG2 [6], 10 nM | – | – | 102 | – | –
HepG2 [6], 100 nM | – | – | 100 | – | –
HepG2 [6], 1000 nM | – | – | 87.9 | – | –
HepG2 [6], 10000 nM | – | – | 84.8 | – | –
U2OS [4], 1 nM | – | – | 99.1 | – | –
U2OS [4], 10 nM | – | – | 98.6 | – | –
U2OS [4], 100 nM | – | – | 98.6 | – | –
U2OS [4], 1000 nM | – | – | 100 | – | –
U2OS [4], 10000 nM | – | – | 91.4 | – | –
Vero E6 [3], 1 nM | – | – | 101 | – | –
Vero E6 [3], 10 nM | – | – | 101 | – | –
Vero E6 [3], 100 nM | – | – | 103 | – | –
Vero E6 [3], 1000 nM | – | – | 97.1 | – | –
Vero E6 [3], 10000 nM | – | – | 94.8 | – | –
[1], 0.3 µM | – | 103 | – | – | –
[1], 3 µM | – | 112 | – | – | –
[1], 10 µM | – | 122 | – | – | –
[1], 30 µM | – | 113 | – | – | –
[7], 0.3 µM | 102 | – | – | – | –
[7], 3 µM | 59 | – | – | – | –
[7], 10 µM | 16 | – | – | – | –
[7], 30 µM | 27 | – | – | – | –
[8], 0.3 µM | – | – | – | 0.02 | –
[8], 3 µM | – | – | – | 0.61 | –
[8], 10 µM | – | – | – | 0.86 | –
[8], 30 µM | – | – | – | 0.32 | –

Settings | drug sensitivity score | relative viability EC50 [µM]
Caco-2 [12] | 0.1 | –
Caco-2 [18] | – | > 10
Calu-3 [9] | 1.2 | –
HepG2 [13] | 1.1 | –
HepG2 [19] | – | > 10
U2OS [11] | 0 | –
U2OS [17] | – | > 10
Vero E6 [10] | 0 | –
Vero E6 [16] | – | > 10

drug-induced phospholipidosis [%], A549-ACE2 [15]
Settings | 0.3 µM | 0.833333 µM | 3.33333 µM | 6.66667 µM | 10 µM | 30 µM
24 h | 2.48 | 6.78 | 32.9 | 53.3 | 64.8 | 70.3
48 h | 1.98 | 4.75 | 20.8 | 48.9 | 65.8 | 86.6
72 h | 3.11 | 3.43 | 18.8 | 39.1 | 63.9 | 101

C[C@@H](O[C@H]1OCCN(Cc2nn[nH]c2CN(C)C)[C@H]1c1ccc(F)cc1)c1cc(C(F)(F)F)cc(C(F)(F)F)c1
Settings | SARS-CoV-2 infection rate [%] | cell count [%] | cell viability [%] | morphology score | phospholipidosis EC50 [µM]
A549-ACE2 [14], 24 h | – | – | – | – | 3.41
A549-ACE2 [14], 48 h | – | – | – | – | 3.74
A549-ACE2 [14], 72 h | – | – | – | – | 4.73
Caco-2 [5], 1 nM | – | – | 97 | – | –
Caco-2 [5], 10 nM | – | – | 94.6 | – | –
Caco-2 [5], 100 nM | – | – | 99.9 | – | –
Caco-2 [5], 1000 nM | – | – | 103 | – | –
Caco-2 [5], 10000 nM | – | – | 70.7 | – | –
Calu-3 [2], 1 nM | – | – | 93.6 | – | –
Calu-3 [2], 10 nM | – | – | 93.9 | – | –
Calu-3 [2], 100 nM | – | – | 91.8 | – | –
Calu-3 [2], 1000 nM | – | – | 97.5 | – | –
Calu-3 [2], 10000 nM | – | – | 75.1 | – | –
HepG2 [6], 1 nM | – | – | 90.8 | – | –
HepG2 [6], 10 nM | – | – | 91.5 | – | –
HepG2 [6], 100 nM | – | – | 87.5 | – | –
HepG2 [6], 1000 nM | – | – | 110 | – | –
HepG2 [6], 10000 nM | – | – | 69.1 | – | –
U2OS [4], 1 nM | – | – | 98.8 | – | –
U2OS [4], 10 nM | – | – | 96.9 | – | –
U2OS [4], 100 nM | – | – | 105 | – | –
U2OS [4], 1000 nM | – | – | 98.6 | – | –
U2OS [4], 10000 nM | – | – | 75.9 | – | –
Vero E6 [3], 1 nM | – | – | 91 | – | –
Vero E6 [3], 10 nM | – | – | 102 | – | –
Vero E6 [3], 100 nM | – | – | 95 | – | –
Vero E6 [3], 1000 nM | – | – | 96.9 | – | –
Vero E6 [3], 10000 nM | – | – | 82.8 | – | –
[1], 0.3 µM | – | 104 | – | – | –
[1], 3 µM | – | 107 | – | – | –
[1], 10 µM | – | 114 | – | – | –
[1], 30 µM | – | 96 | – | – | –
[7], 0.3 µM | 94 | – | – | – | –
[7], 3 µM | 67 | – | – | – | –
[7], 10 µM | 21 | – | – | – | –
[7], 30 µM | 29 | – | – | – | –
[8], 0.3 µM | – | – | – | 0.33 | –
[8], 3 µM | – | – | – | 0.54 | –
[8], 10 µM | – | – | – | 0.79 | –
[8], 30 µM | – | – | – | 0.29 | –

Settings | drug sensitivity score | relative viability EC50 [µM]
Caco-2 [12] | 1.1 | –
Calu-3 [9] | 1.3 | –
Calu-3 [20] | – | > 10
HepG2 [13] | 0.9 | –
U2OS [11] | 1.1 | –
U2OS [17] | – | > 10
Vero E6 [10] | 0.7 | –
Vero E6 [16] | – | > 10

drug-induced phospholipidosis [%], A549-ACE2 [15]
Settings | 0.3 µM | 0.833333 µM | 3.33333 µM | 6.66667 µM | 10 µM
24 h | 0.77 | 3.06 | 53.9 | 92.5 | 102
48 h | 1.56 | 0.335 | 38.1 | 83.7 | 91.7
72 h | 2.71 | 0.0731 | 32.7 | 80.6 | 99.1

CCC[C@@H]1CC2=CC(=O)CC[C@]2(C)[C@H]2CC[C@@]3(C)[C@@H](CC[C@@]3(O)CCC(=O)O)[C@H]12
Settings | SARS-CoV-2 infection rate, [7] [%] | cell count, [1] [%] | cell viability, Caco-2 [5] [%] | cell viability, Calu-3 [2] [%] | cell viability, HepG2 [6] [%] | cell viability, U2OS [4] [%] | cell viability, Vero E6 [3] [%] | morphology score, [8]
1 nM | – | – | 87.4 | 101 | 87.5 | 98.9 | 94.6 | –
10 nM | – | – | 98.4 | 92.5 | 105 | 98.3 | 91 | –
100 nM | – | – | 95.7 | 100 | 93.3 | 97.2 | 97.6 | –
0.3 µM | 98 | 95 | – | – | – | – | – | 0.12
1000 nM | – | – | 94.9 | 98.5 | 92 | 100 | 89.1 | –
3 µM | 105 | 103 | – | – | – | – | – | -0.07
10 µM | 97 | 100 | – | – | – | – | – | 0.07
10000 nM | – | – | 89.8 | 102 | 101 | 93.8 | 95.4 | –
30 µM | 96 | 99 | – | – | – | – | – | 0.1

Settings | drug sensitivity score | relative viability EC50 [µM]
Caco-2 [12] | 0 | –
Caco-2 [18] | – | > 10
Calu-3 [9] | 0 | –
Calu-3 [20] | – | > 10
HepG2 [13] | 0 | –
HepG2 [19] | – | > 10
U2OS [11] | 0 | –
U2OS [17] | – | > 10
Vero E6 [10] | 0 | –
Vero E6 [16] | – | > 10

drug-induced phospholipidosis [%], A549-ACE2 [15]
Settings | 0.3 µM | 0.833333 µM | 3.33333 µM | 6.66667 µM | 10 µM | 30 µM
24 h | 2.3 | -0.41 | -0.2 | 0.45 | 2.66 | 5.67
48 h | 3.88 | 0.27 | -1.07 | 1.45 | 3.16 | 6.48
72 h | 3.28 | -0.65 | -0.652 | 0.565 | 3.59 | 9.53
